Experimental data from patent US8022208B2, “Benzene derivative or salt thereof” (Astellas Pharma Inc., priority 2005, dated 2011).

What was measured:
human factor Xa = biological target: T1, human factor Xa (Homo sapiens, UniProt P00742); test: Enzyme inhibition by synthetic substrate method (S-2222); assay type: biochemical; settings: human factor Xa 0.025 U/ml, synthetic substrate S-2222, pH 8.4, 37° C., 10 minutes
T1 construct: purchased Enzyme Research Labs
Method: 2) Test of Measuring Enzyme Inhibition by Synthetic Substrate Method:
25 μl of a reaction buffer (pH 8.4), 5 μl of a test compound dissolved in DMSO or DMSO alone, and 10 μl of a synthetic substrate, 2 mM S-2222 (Chromogenix) were added to a 96-well microplate, then 10 μl of 0.025 U/ml human factor Xa was added thereto, and reacted at 37° C. for 10 minutes, and then the absorbance change at 405 nm was measured with Molecular Devices' Spectramax 340PC^384, and the IC50 value was calculated.

human plasma = test: Extrinsic coagulation time (PT) in human plasma; settings: HemosIL RecombiPlasTin
Method: 3) Extrinsic Coagulation Time (PT):
2 μl of a test compound dissolved in DMSO or DMSO alone, and 50 μl of physiological saline were added to 50 μl of human plasma warmed at 37° C. for 1 minute, then 100 μl of HemosIL RecombiPlasTin (Instrumentation Laboratory) was added, and the coagulation time was measured. For measuring the coagulation time, used was Amelung's KC10A. The CT2 value (the concentration for 2-fold prolongation of the coagulation time with DMSO) was calculated through linear regression, by plotting the relative value (fold) of the coagulation time to the control and the test compound concentration.

mouse plasma = test: Ex vivo coagulation time with mice (oral administration), extrinsic coagulation time (PT); assay type: in vivo, male ICR mice; settings: oral 100 mg/kg, 30 minutes after administration
Method: 4) Test of Measuring Ex Vivo Coagulation Time with Mice (Oral Administration):
To test animals of male ICR mice (body weight, about 40 g, SLC) that had been fasted for 12 hours or longer, a solution or suspension of a test compound dissolved in 0.5% methyl cellulose was forcedly orally administered (100 mg/kg), using a feeding needle; and after 30 minutes and after 2 hours, under anesthesia with diethyl ether, 1 ml of blood was collected from the mice through their postcaval vein in 3.8% sodium citrate to be 1/10 by volume, and centrifuged at 12000 rpm for 3 minutes to separate plasma therefrom. The extrinsic coagulation time (PT) and the intrinsic coagulation time (APTT) for this plasma were measured according to the following methods a) and b).
a) Extrinsic Coagulation Time (PT):
50 μl of the mouse plasma was warmed at 37° C. for 1 minute, and 100 μl of HemosIL RecombiPlasTin was added, and the coagulation time was counted. For measuring the coagulation time, used was Amelung's KC10A. The mouse plasma coagulation time with no test compound administration was control; and the coagulation time prolonging activity of the test compound was represented by a relative value to the control, 1.

T1 sequence (P00742 235-488 limits assumed): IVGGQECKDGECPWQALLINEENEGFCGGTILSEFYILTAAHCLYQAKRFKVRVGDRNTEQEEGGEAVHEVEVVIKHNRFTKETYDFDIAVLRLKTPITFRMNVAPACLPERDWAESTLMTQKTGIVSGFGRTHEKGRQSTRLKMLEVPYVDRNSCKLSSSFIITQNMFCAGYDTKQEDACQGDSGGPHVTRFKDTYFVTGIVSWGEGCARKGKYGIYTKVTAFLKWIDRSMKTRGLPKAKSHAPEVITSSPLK
T1 sequence (P00742 41-179 partner limits assumed): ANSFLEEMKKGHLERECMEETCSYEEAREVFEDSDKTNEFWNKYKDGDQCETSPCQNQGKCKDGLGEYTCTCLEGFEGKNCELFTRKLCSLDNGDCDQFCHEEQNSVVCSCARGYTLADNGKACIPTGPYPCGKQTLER

IC50 (human factor Xa) [nM] | Compound | CT2 value (the concentration for 2-fold prolongation of the coagulation time with DMSO) (human plasma) [µM] | coagulation time prolonging activity (relative value to the control, 1) (mouse plasma) [times]
6.7 | Cl.Cn1ccc(=O)c(-c2ccc(C(=O)Nc3c(O)cccc3C(=O)Nc3ccc(Cl)cn3)cc2)c1 [Example 1, N-(5-chloropyridin-2-yl)-3-hydroxy-2-{[4-(1-methyl-4-oxo-1,4-dihydropyridin-3-yl)benzoyl]amino}benzamide hydrochloride] | 0.34 | –
– | CN(C)CCn1cccc(-c2ccc(C(=O)Nc3c(O)cccc3C(=O)Nc3ccc(Cl)cn3)cc2)c1=O.Cl [Example 10] | – | 3.3
8.3 | Cn1cccc(-c2ccc(C(=O)Nc3c(O)cccc3C(=O)Nc3ccc(Cl)cn3)cc2)c1=O [Example 30] | – | –
– | Cl.O=C(Nc1c(O)cccc1C(=O)Nc1ccc(Cl)cn1)c1ccc(-c2cccn(CCN3CCCOCC3)c2=O)cc1 [Example 42] | 0.65 | –
– | CN1CCC(OCCn2cccc(-c3ccc(C(=O)Nc4c(O)cc(Cl)cc4C(=O)Nc4ccc(Cl)cn4)cc3)c2=O)CC1.Cl [Example 78] | – | 3.9
